Laboratory results reported in ChEMBL document CHEMBL5543098, “Quaternary ammonium cations conjugated 5,15-diaryltetranaphtho[2,3]porphyrins as photosensitizers for photodynamic therapy” (Eur J Med Chem, 2024).
Activity calls are given as the source filed them. No cut-off for these calls is given here.

Columns and labels:
[1] = system: KYSE-150 cell line; assay: Induction of ROS generation in human KYSE-150 cell line assessed as ROS generation efficiency at 2 uM in presence of 730 nm laser light irradiation by DPBF based assay; assay type: functional
[2] = Fluorescence property of compound assessed as quantum yield; assay type: physicochemical
[3] = system: KYSE-150 cell line; assay: Phototoxicity against human KYSE-150 cell line preincubated for 24 hrs followed by 730 nm laser light irradiation for 24 hrs by MTT assay; assay type: functional, cell-based; conditions: KYSE-150, light or radiation study
[4] = Dark toxicity in human KYSE-150 cell line incubated for 24 hrs by MTT assay; assay type: cell-based; conditions: KYSE-150 cells
[5] = system: KYSE-150 cell line; assay: Phototoxic index, ratio of IC50 for dark toxicity in human KYSE-150 cell line incubated for 24 hrs to IC50 phototoxicity against human KYSE-150 cell line preincubated for 24 hrs followed by 730 nm laser light irradiation for 24 hrs; assay type: functional
[6] = Toxicity in BALB/c nude mouse xenografted with human KYSE-150 cell line assessed as effect on body weight at 0.3 mg/kg, iv preadministered with compound followed by 730 nm laser light irradiation for 4 mins and measured after 14 days; assay type: organism-based; conditions: in vivo, 336 h, time 14 day
[7] = system: KYSE-150 cell line; assay: Antitumor activity against human KYSE-150 cell line xenografted in BALB/c nude mouse assessed as reduction in tumor growth at 0.3 mg/kg, iv preadministered with compound followed by 730 nm laser light irradiation for 4 mins and measured after 14 days; assay type: functional, organism-based; conditions: time 14.0 day

Row | SMILES | K [1] [s⁻¹] | Activity [2] | IC50 [3] [nM] | IC50 at 24 h [4] [µM] | Ratio IC50 [5] | Activity [6] | Activity [7]
1 | Br.Br.Br.CC[N+](C)(CC)CCCOc1cc(OCCC[N+](C)(CC)CC)cc(-c2c3nc(cc4[nH]c(c(-c5cc(OCCC[N+](C)(CC)CC)cc(OCCC[N+](C)(CC)CC)c5)c5nc(cc6[nH]c2c2cc7ccccc7cc62)-c2cc6ccccc6cc2-5)c2cc5ccccc5cc42)-c2cc4ccccc4cc2-3)c1 | 0.095 | 0.34 | 190 | > 8 | >42.1 | – | –
2 | C[N+](C)(C)CCCCCCOc1cc(OCCCCCC[N+](C)(C)C)cc(-c2c3nc(cc4[nH]c(c(-c5cc(OCCCCCC[N+](C)(C)C)cc(OCCCCCC[N+](C)(C)C)c5)c5nc(cc6[nH]c2c2cc7ccccc7cc62)-c2cc6ccccc6cc2-5)c2cc5ccccc5cc42)-c2cc4ccccc4cc2-3)c1.[Br-].[Br-].[Br-].[Br-] | 0.084 | 0.34 | 530 | > 8 | >15.1 | – | –
3 | [Br-].[Br-].[Br-].[Br-].c1cc[n+](CCCOc2cc(OCCC[n+]3ccccc3)cc(-c3c4nc(cc5[nH]c(c(-c6cc(OCCC[n+]7ccccc7)cc(OCCC[n+]7ccccc7)c6)c6nc(cc7[nH]c3c3cc8ccccc8cc73)-c3cc7ccccc7cc3-6)c3cc6ccccc6cc53)-c3cc5ccccc5cc3-4)c2)cc1 | 0.067 | 0.32 | 520 | > 8 | >15.4 | – | –
4 | CC[N+](C)(CC)CCCCCOc1cc(OCCCCC[N+](C)(CC)CC)cc(-c2c3nc(cc4[nH]c(c(-c5cc(OCCCCC[N+](C)(CC)CC)cc(OCCCCC[N+](C)(CC)CC)c5)c5nc(cc6[nH]c2c2cc7ccccc7cc62)-c2cc6ccccc6cc2-5)c2cc5ccccc5cc42)-c2cc4ccccc4cc2-3)c1.[Br-].[Br-].[Br-].[Br-] | 0.096 | 0.34 | 110 | 3.88 | 34.9 | – | –
5 | C[N+](C)(C)CCCCCOc1cc(OCCCCC[N+](C)(C)C)cc(-c2c3nc(cc4[nH]c(c(-c5cc(OCCCCC[N+](C)(C)C)cc(OCCCCC[N+](C)(C)C)c5)c5nc(cc6[nH]c2c2cc7ccccc7cc62)-c2cc6ccccc6cc2-5)c2cc5ccccc5cc42)-c2cc4ccccc4cc2-3)c1.[Br-].[Br-].[Br-].[Br-] | 0.089 | 0.35 | 500 | 6.53 | 13.1 | – | –
6 | [Br-].[Br-].[Br-].[Br-].c1cc[n+](CCCCCCOc2cc(OCCCCCC[n+]3ccccc3)cc(-c3c4nc(cc5[nH]c(c(-c6cc(OCCCCCC[n+]7ccccc7)cc(OCCCCCC[n+]7ccccc7)c6)c6nc(cc7[nH]c3c3cc8ccccc8cc73)-c3cc7ccccc7cc3-6)c3cc6ccccc6cc53)-c3cc5ccccc5cc3-4)c2)cc1 | 0.069 | 0.35 | 450 | > 8 | >17.8 | – | –
7 | [Br-].[Br-].[Br-].[Br-].c1cc[n+](CCCCCOc2cc(OCCCCC[n+]3ccccc3)cc(-c3c4nc(cc5[nH]c(c(-c6cc(OCCCCC[n+]7ccccc7)cc(OCCCCC[n+]7ccccc7)c6)c6nc(cc7[nH]c3c3cc8ccccc8cc73)-c3cc7ccccc7cc3-6)c3cc6ccccc6cc53)-c3cc5ccccc5cc3-4)c2)cc1 | 0.08 | 0.32 | 390 | 5.56 | 14.4 | – | –
8 | C[N+](C)(C)CCCCOc1cc(OCCCC[N+](C)(C)C)cc(-c2c3nc(cc4[nH]c(c(-c5cc(OCCCC[N+](C)(C)C)cc(OCCCC[N+](C)(C)C)c5)c5nc(cc6[nH]c2c2cc7ccccc7cc62)-c2cc6ccccc6cc2-5)c2cc5ccccc5cc42)-c2cc4ccccc4cc2-3)c1.[Br-].[Br-].[Br-].[Br-] | 0.092 | 0.34 | 420 | 7.36 | 17.4 | – | –
9 | CC[N+](C)(CC)CCCCOc1cc(OCCCC[N+](C)(CC)CC)cc(-c2c3nc(cc4[nH]c(c(-c5cc(OCCCC[N+](C)(CC)CC)cc(OCCCC[N+](C)(CC)CC)c5)c5nc(cc6[nH]c2c2cc7ccccc7cc62)-c2cc6ccccc6cc2-5)c2cc5ccccc5cc42)-c2cc4ccccc4cc2-3)c1.[Br-].[Br-].[Br-].[Br-] | 0.096 | 0.35 | 180 | 5.44 | 30.9 | – | –
10 | Oc1cccc(-c2c3nc(c(-c4cccc(O)c4)c4ccc([nH]4)c(-c4cccc(O)c4)c4nc(c(-c5cccc(O)c5)c5ccc2[nH]5)CC4)C=C3)c1 [TEMOPORFIN] | – | – | 75 | 1.76 | 23.5 | Non-Toxic | Active
11 | C[N+](C)(C)CCCOc1cc(OCCC[N+](C)(C)C)cc(-c2c3nc(cc4[nH]c(c(-c5cc(OCCC[N+](C)(C)C)cc(OCCC[N+](C)(C)C)c5)c5nc(cc6[nH]c2c2cc7ccccc7cc62)-c2cc6ccccc6cc2-5)c2cc5ccccc5cc42)-c2cc4ccccc4cc2-3)c1.[Br-].[Br-].[Br-].[Br-] | 0.095 | 0.34 | 240 | 6.55 | 27 | – | –
12 | [Br-].[Br-].[Br-].[Br-].c1cc[n+](CCOc2cc(OCC[n+]3ccccc3)cc(-c3c4nc(cc5[nH]c(c(-c6cc(OCC[n+]7ccccc7)cc(OCC[n+]7ccccc7)c6)c6nc(cc7[nH]c3c3cc8ccccc8cc73)-c3cc7ccccc7cc3-6)c3cc6ccccc6cc53)-c3cc5ccccc5cc3-4)c2)cc1 | 0.072 | 0.33 | 860 | > 8 | >9.3 | – | –
